“Also recorded” adds a separate entry of the source.
Key:
endocrine system [1] = experiment: Endocrine suppression activity in animals, general statements; type: in vivo
endocrine system [2] = conditions: cited from earlier work; for Endocrine suppression, weight control and P/F ratio: levels of administration described in the copending application; for Production of gonadal hormones / Production of thyroid hormones: parenteral administration, copending application
[3] = Weight control and P/F ratio of animals, general statements; type: in vivo; conditions: for Improved P/F ratio, lowest dosage / Weight control activity, lowest dosage: decreasing dosage
hormone concentrations = experiment: Hormone concentrations of treated rats, overall statement (Example 1); type: in vivo, Sprague-Dawley rat
Method: (§1) Adult male Sprague-Dawley rats (≈250 g) were injected subcutaneously with CoPP 1 μmol/kg b.w. (12 rats) or vehicle (12 rats) on day 0. Thereafter, injections (Vertical arrows in FIG. 1) were repeated weekly until 10 doses had been given. Animals were allowed Purina rat chow and water ad libitum and animal weights were recorded thrice weekly; means are presented in FIG. 1 ( is control and treated animals). On day 71, 6 control rats and 6 CoPP-treated rats were sacrificed, blood collected for hormone determinations and hepatic mitochondrial and microsomal fractions prepared for biochemical assays. These procedures were repeated at day 124 for the remainder of the animals.

testosterone [4] = experiment: Serum testosterone of male Beagle dogs after weekly intramuscular injections (Example 2); type: in vivo, Beagle dog; conditions: for Testosterone (serum): n = 3
Method: (§2) Adult male Beagle dogs (≈1 year) were housed in single runs with free access to Purina dog chow and water. On day 0, 3 animals were injected intramuscularly in the upper posterolateral aspect of the hindlimb with CoPP 2.5 μmol/kg b.w., and 3 animals with control vehicle. Injections (Vertical arrows in FIG. 2) were repeated weekly, in alternating hindlimbs, until a: total of 9 doses had been given. Animal weights were recorded thrice weekly and means are presented in FIG. 2 ( is control and is treated animals).
The effects of 9 serial doses of CoPP 2.5 μmol/kg b.w. on serum
testosterone concentrations in male Beagle dogs.

[5] = tested on: 7-Ethoxycoumarin de-ethylase; experiment: Hepatic 7-ethoxycoumarin de-ethylase activity of treated rats (Example 1); type: in vivo, Sprague-Dawley rat; conditions: Day 71; 10 serial doses of CoPP 1 μmol/kg b.w. s.c.; n = 6; control 0.41 ± 0.04
Method: as §1
(§3) The effects of 10 serial doses of CoPP 1 μmol/kg b.w. on weight,
(§4) *n = 12; for all other parameters, n = 6 animals per treatment.

[6] = tested on: Ethylmorphine demethylase; experiment: Hepatic ethylmorphine demethylase activity of treated rats (Example 1); type: in vivo, Sprague-Dawley rat; conditions: Day 71; 10 serial doses of CoPP 1 μmol/kg b.w. s.c.; n = 6; control 0.43 ± 0.05
Method: as §1, §3, §4

Insulin = Insulin concentration in blood of subcutaneously treated rats (Example 1); type: in vivo, Sprague-Dawley rat; conditions: Day 124; 10 serial doses of CoPP 1 μmol/kg b.w. s.c.; n = 6; control 156 ± 47.6
Method: as §1, §3, §4

[7] = tested on: δ-Aminolevulinic acid synthase; experiment: Hepatic δ-aminolevulinic acid synthase activity of treated rats (Example 1); type: in vivo, Sprague-Dawley rat; conditions: Day 71; 10 serial doses of CoPP 1 μmol/kg b.w. s.c.; n = 6; control 0.29 ± 0.02
Method: as §1, §3, §4

[8] = tested on: Aryl hydrocarbon hydroxylase; experiment: Hepatic aryl hydrocarbon hydroxylase activity of treated rats (Example 1); type: in vivo, Sprague-Dawley rat; conditions: Day 71; 10 serial doses of CoPP 1 μmol/kg b.w. s.c.; n = 6; control 275 ± 24
Method: as §1, §3, §4

cytochrome P-450 [9] = conditions: administration to animals; lowest level 25 μm/kg body weight; cited from earlier work
Cytochrome P-450 [10] = experiment: Hepatic cytochrome P-450 content of treated rats (Example 1); type: in vivo, Sprague-Dawley rat; conditions: Day 71; 10 serial doses of CoPP 1 μmol/kg b.w. s.c.; n = 6; control 1.06 ± 0.23
Method: as §1, §3, §4

[11] = Prolonged body weight loss after single intraventricular treatment (Example 5); type: in vivo, rat; conditions: single i/vt CoPP 0.2 or 0.4 μmol/kg b.w.; n=4; FIG. 5
Excerpt: The prolonged loss of body weight following single i/vt treatments with CoPP 0.2 or 0.4 μmol/kg b.w. are contrasted with that of vehicle-treated rats in FIG. 5 (n=4).

Aniline hydroxylase = experiment: Hepatic aniline hydroxylase activity of treated rats (Example 1); type: in vivo, Sprague-Dawley rat; conditions: Day 71; 10 serial doses of CoPP 1 μmol/kg b.w. s.c.; n = 6; control 59 ± 3.48
Method: as §1, §3, §4

Heme oxygenase = experiment: Hepatic heme oxygenase activity of treated rats (Example 1); type: in vivo, Sprague-Dawley rat; conditions: Day 71; 10 serial doses of CoPP 1 μmol/kg b.w. s.c.; n = 6; control 1.85 ± 0.15
Method: as §1, §3, §4

[12] = Body weight of adult male rats treated intraventricularly (Example 4); type: in vivo, rat; conditions: i/vt CoPP 0.4 μmol/kg b.w.; 5 animals; FIG. 4
Excerpt: FIG. 4 depicts the means ±SEM of the body weights of 5 adult male rats treated i/vt with vehicle and 5 animals with CoPP 0.4 μmol/kg b.w. ( , lower panel).

[13] = tested on: heme pathway and cytochrome P-450-dependent enzyme activities; experiment: Heme pathway and cytochrome P-450-dependent enzyme activities of treated rats, overall statement (Example 1); type: in vivo, Sprague-Dawley rat; conditions: CoPP 1 μmol/kg b.w. s.c. weekly, 10 doses
Method: as §1

testosterone [14] = experiment: Testosterone concentration of adult male rats treated intraventricularly (Example 4); type: in vivo, rat; conditions: i/vt CoPP 0.4 μmol/kg b.w.; 5 animals; FIG. 4
Testosterone [15] = experiment: Testosterone concentration in blood of subcutaneously treated rats (Example 1); type: in vivo, Sprague-Dawley rat; conditions: 10 serial doses of CoPP 1 μmol/kg b.w. s.c., n = 6
Method: as §1, §3, §4

LH = LH concentration in blood of subcutaneously treated rats (Example 1); type: in vivo, Sprague-Dawley rat; conditions: Day 124; 10 serial doses of CoPP 1 μmol/kg b.w. s.c.; n = 6; control 21.1 ± 3.29
Method: as §1, §3, §4

[16] = Body weight of adult male Beagle dogs after weekly intramuscular injections (Example 2); type: in vivo, Beagle dog
Method: as §2

[17] = Body weight and naso-anal length of adult male rats after weekly subcutaneous injections (Example 1); type: in vivo, Sprague-Dawley rat
Method: as §1, §3, §4
**As calculated by Student's Ttest. The only significant changes are in […]

[18] = Body weight of adult male rats after intraventricular injection, dose response (Example 3); type: in vivo, rat
Method: Adult male rats were anesthetized during stereotaxic placement of chronic indwelling catheters into the third ventricle of the brain. After 3-4 days post-operative recovery, animals were injected intraventricularly (i/vt) with small volumes (<10μl) of vehicle or CoPP 0.1, 0.2 (o) or 0.4 μmol/kg b.w.

[19] = at about 10 μm/kg b.w., say 9.8 μm/kg b.w.
[20] = preferred range 0.1 to 0.3 μm/kg b.w.
[21] = similar administration to FIGS. 1-5
[22] = CoPP 1 μmol/kg b.w. s.c. weekly, 10 doses

With CCC1=C(C)c2cc3[n-]c(cc4[n-]c(cc5nc(cc1n2)C(C)=C5CC)c(C)c4CCC(=O)[O-])c(CCC(=O)[O-])c3C.[Co+2].[H+].[H+] [CoMP, cobalt mesoporphyrin] the Endocrine suppression activity (endocrine system [1]; at 4 μm/kg b.w.) was “effectively disappeared”, the Endocrine suppression activity (endocrine system [1]; [19]) was “negligible” and the Endocrine suppression activity (endocrine system [1]; dependence on dosage) was “declines as the dosage is decreased”. For the same compound, the Endocrine suppression activity (endocrine system [1]; [20]) was “substantially no endocrine suppression activity”, the “Endocrine suppression, weight control and P/F ratio” value (endocrine system [2]) was “endocrine suppression, weight control and improved P/F ratio all take place simultaneously” and the “Production of gonadal hormones” value (endocrine system [2]) was “limit the production of gonadal hormones”. The “Production of thyroid hormones” value (endocrine system [2]) was “suppress the production of thyroid hormones”, the “Improved P/F ratio, lowest dosage” value [3] was “continues even down to as low as 0.1 μm/kg b.w” and the “Weight control activity, lowest dosage” value [3] was “continues even down to as low as 0.1 μm/kg b.w”. For the same compound, the P/F ratio [3, 21] was “improved P/F ratios” and the “Results relative to those illustrated in the figures for CoPP” value [3, 21] was “Comparable results”.

With C=CC1=C(C)c2cc3[n-]c(cc4nc(cc5[n-]c(cc1n2)c(C)c5CCC(=O)[O-])C(CCC(=O)[O-])=C4C)c(C)c3C=C.[Co+2].[H+].[H+] [CoPP, cobalt protoporphyrin] the “Difference in hormone concentrations vs control” value (hormone concentrations; [22]) was “no significant differences”, the “Hormone concentration change (FIG. 1 with Table I)” value (hormone concentrations; adult male rats, Example 1) was “without decrease in hormone concentration” and the “Testosterone (serum)” value (testosterone [4]; Day 0 (before start of the experiment), CoPP 2.5 μmol/kg b.w. group, control 1.82 ± 0.65) was 2.03 ± 0.57 ng/mL. For the same compound, the “Testosterone (serum)” value (testosterone [4]; Day 62, 9 serial doses of CoPP 2.5 μmol/kg b.w. i.m. weekly, control 1.73 ± 0.52) was 2.15 ± 1.52 ng/mL, the “Testosterone (serum)” value (testosterone [4]; Day 112, 9 serial doses of CoPP 2.5 μmol/kg b.w. i.m. weekly, control 1.67 ± 0.03) was 1.92 ± 0.83 ng/mL and the “Testosterone level change (FIG. 2 with Table II)” value (testosterone [4]; adult male dogs, Example 2) was “no decrease in testosterone levels”. For the same compound, the “Effect on testosterone concentrations” value (testosterone [4]; days 62 and 112, CoPP 2.5 μmol/kg b.w. i.m.) was “no effect”, the Endocrine suppression activity (endocrine system [1]; at 4 μm/kg b.w.) was “effectively disappeared” and the Endocrine suppression activity (endocrine system [1]; [19]) was “negligible”. For the same compound, the Endocrine suppression activity (endocrine system [1]; dependence on dosage) was “declines as the dosage is decreased”, the Endocrine suppression activity (endocrine system [1]; [20]) was “substantially no endocrine suppression activity” and the 7-Ethoxycoumarin de-ethylase [5] was 0.53 ± 0.03 μmol/mg prot/hr. It also gave an Ethylmorphine demethylase [6] of 0.49 ± 0.04 μmol form/mg prot/hr, an Insulin (Insulin) of 191 ± 43.6 μU/ml and a δ-Aminolevulinic acid synthase [7] of 0.30 ± 0.01 μmol ALA/mg prot/90'. The “Endocrine suppression, weight control and P/F ratio” value (endocrine system [2]) was “endocrine suppression, weight control and improved P/F ratio all take place simultaneously”, the “Production of gonadal hormones” value (endocrine system [2]) was “limit the production of gonadal hormones” and the “Production of thyroid hormones” value (endocrine system [2]) was “suppress the production of thyroid hormones”. For the same compound, the Aryl hydrocarbon hydroxylase [8] was 291 ± 28 pmol 80HBP/mg prot/hr, the “Cytochrome P-450 content of the liver” value (cytochrome P-450 [9]) was “deplete the cytochrome P-450 content of the liver” and the “Cytochrome P-450” value (Cytochrome P-450 [10]) was 0.70 ± 0.12 nmol/mg protein. For the same compound, the “Loss of body weight after single i/vt treatment” value [11] was “prolonged weight loss; also recorded: prompt decrease in weight”, the “Weight differential between treated and untreated animals” value [11] was “maintained for the duration of the treatment” and the Aniline hydroxylase (Aniline hydroxylase) was 74 ± 4.62 nmol p-aminop./mg prot/hr. For the same compound, the Heme oxygenase (Heme oxygenase) was 2.08 ± 0.21 nmol bilirubin/mg prot/hr, the Weight loss [12] was “typical weight loss” and the “Improved P/F ratio, lowest dosage” value [3] was “continues even down to as low as 0.1 μm/kg b.w”. The “Weight control activity, lowest dosage” value [3] was “continues even down to as low as 0.1 μm/kg b.w”, the P/F ratio [3, 21] was “improved P/F ratios” and the “Difference in heme pathway and cytochrome P-450-dependent enzyme activities vs control” value [13] was “no significant differences”. For the same compound, the “Testosterone concentrations vs vehicle-treated rats” value (testosterone [14]) was “without significant changes in testosterone concentration; also recorded: not significantly different”, the Testosterone (Testosterone [15]; Day 71, control 1.96 ± 0.29) was 1.72 ± 0.23 ng/mL and the Testosterone (Testosterone [15]; Day 124, control 2.64 ± 0.25) was 3.59 ± 0.90 ng/mL. For the same compound, the LH (LH) was 24.2 ± 6.14 ng/mL, the “Body weight change (FIG. 2)” value ([16]; adult male dogs, Example 2) was “decrease in body weight” and the Mean weights ([16]; after first 3 weeks, CoPP 2.5 μmol/kg b.w. i.m. weekly) was “progressively decreased thereafter to a nadir at day 74”. The “Recovery of body weight” value ([16]; by day 84, CoPP 2.5 μmol/kg b.w. i.m. weekly, 9 doses) was “returned to their pre-treatment weights”, the Mean weights ([16]; first 3 weeks of treatment, CoPP 2.5 μmol/kg b.w. i.m. weekly) was “unchanged” and the “Loss of body weight” value ([16]; nadir at day 74, CoPP 2.5 μmol/kg b.w. i.m. weekly, 9 doses) was “approximately 25 % of their body weight”. For the same compound, the “Difference in weights of control and CoPP-treated rats” value [17, 22] was “highly significant”, the Body weight ([17]; Day 71, 10 serial doses of CoPP 1 μmol/kg b.w. s.c. weekly, n = 12, control 568 ± 16) was 442 ± 5 g and the “Body weight” value ([17]; Day 124, 10 serial doses of CoPP 1 μmol/kg b.w. s.c., n = 6, control 633 ± 39) was 541 ± 12 g. For the same compound, the “Body weight change (FIG. 1)” value ([17]; adult male rats, Example 1) was “decrease in body weight”, the “Weight loss (FIG. 3)” value ([18]; adult male rats, intraventricular administration, Example 3) was “weight loss achieved” and the “Effects on body weight, dose dependence” value ([18]; i/vt CoPP 0.1, 0.2 or 0.4 μmol/kg b.w., 4-6 animals per group) was “dose responsive”. For the same compound, the “i/vt dosage relative to s/c dosage required to elicit the same changes (fold less)” value ([18]; intraventricular versus s/c administration) was 50-100 fold less.

— US4997828A, “Method of weight control by low level administration of cobalt protoporphyrin or cobalt mesoporphyrin” (The Rockefeller University, priority 1989, dated 1991)
